The record followed here is patent publication US8802711B2, “TRPV1 antagonists” (AbbVie Inc., priority 2011, dated 2014).

Where two headings read alike, the source gives them in different places.

Assay [1] addresses human TRPV1 receptor (hTRPV1) (Homo sapiens (Human), UniProt Q8NER1). The assay is described as follows: Capsaicin activation assay (FLIPR intracellular Ca2+). As to conditions: inhibition of capsaicin-induced intracellular Ca2+ increase, read-out: hTRPV1 cap IC50. The assay is classed as cell-based. Put shortly: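 Antagonism measured as [Ca2+]i fluorescence on FLIPR Tetra: compounds given 3 min ahead of capsaicin, added as 200 nM (4×), to dye-loaded hTRPV1-HEK293 cells. Response taken as baseline-subtracted peak, normalized to the 50 nM capsaicin control; 12-point one-third-log titrations.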

Assay [2] relates to Sprague-Dawley rats. Briefly: Rat tail immersion assay (noxious thermosensation). The assay is classed as in vivo. As to conditions: rat, 100 μmol/kg oral, one hour post dosing, 55° C. water bath, relative to vehicle. As for the experimental part: (§1) Adult male Sprague-Dawley rats (250-300 g body weight, Charles River Laboratories, Portage, Mich.) were used. Animal handling and experimental protocols were approved by the Institutional Animal Care and Use Committee (IACUC) at Abbott Laboratories. For all surgical procedures, animals were maintained under isoflurane anesthesia (4-5% to induce, 1-3% to maintain), and the incision sites were sterilized using a 10% povidone-iodine solution prior to and after surgeries.
Compounds were tested for their effects on noxious thermosensation using the tail immersion assay. Testing was performed one hour following oral administration of 100 μmol/kg of the compound in 10% ethanol/20% Tween-80/70% PEG-400 (2 mL/kg). Morphine (6 mg/kg) was administered interperitoneally (i.p.) using saline (2 mL/kg) as the vehicle. For testing, a circulating water bath was heated to 55° C. Thirty to sixty minutes post dosing, the rats were handled for a few seconds to calm them down and then cupped with their back against the tester's hand at a slight angle with head facing away from the tester. With rat in one hand and a 0.01 second stopwatch in the other hand, the tail was quickly immersed 6-8 cm in the water bath or to a distance leaving 2-3 cm of tail out of water. The timer was started simultaneously. When the rat flinched or attempted withdrawal, timer was immediately stopped and the rat's tail was quickly removed from water bath. This response latency (in seconds) was recorded. Process was repeated 3 times with 3-4 minutes between readings and the average response latency was calculated.
For a given example, a percent increase in the average response latency (in seconds) for tail withdrawal relative to a vehicle control was determined. % increase=[(tc−tv)/tv]×100%
tc=response latency (in seconds) with oral dosing of compounds
tv=response latency (in seconds) with oral dosing of vehicle
The % increases in tail withdrawal latency relative to vehicle control are divided into the following categories: […]

In assay [3] the test system is Sprague-Dawley rats. Briefly: Sodium iodoacetate-induced knee joint osteoarthritic pain model. The assay is classed as in vivo, rat. The following applies: 1 hour after dosing, % return to normalcy of hind limb grip force.
Text: as §1
Unilateral knee joint osteoarthritis was induced in the rats by a single intra-articular (i.a.) injection of sodium iodoacetate (3 mg in 0.05 mL sterile isotonic saline) into the right knee joint cavity under light isoflurane anesthesia using a 26 G needle. […] Pain behavioral assessment of hind limb grip force was conducted by recording the maximum compressive force exerted on the hind limb strain gauge setup, in a commercially available grip force measurement system (Columbus Instruments, Columbus, Ohio), to elicit paw withdrawal. The grip force data was converted to a maximum hindlimb cumulative compressive force (CFmax) (gram force)/kg body weight for each animal. The analgesic effects of test compounds were determined 20 days following the i.a. injection of sodium iodoacetate. The vehicle control group for each compound being tested was assigned 0% whereas the age matched naïve group was assigned as being 100% (normal). The % effect for each dose group was then expressed as % return to normalcy compared to the naïve group. Test compounds were administered orally in 10% ethanol/20% Tween 80/70% polyethylene glycol-400 vehicle at a volume of 2 mL/kg. The assessment of the analgesic effects of test compounds was made 1 hour following oral administration. The assessment of the analgesic effects of test compounds can be made following a single dose or following repeated administration wherein the frequency of dosing is 1 to 2 times daily. The duration of such repeated daily dosing may last for any time greater than one day. A typical duration of repeated daily dosing is about 5 days to about 12 days.

[4] abbreviates: Table 1, HEK293 cells expressing human TRPV1.

Sequence of human TRPV1 receptor (hTRPV1) (Q8NER1 whole entry): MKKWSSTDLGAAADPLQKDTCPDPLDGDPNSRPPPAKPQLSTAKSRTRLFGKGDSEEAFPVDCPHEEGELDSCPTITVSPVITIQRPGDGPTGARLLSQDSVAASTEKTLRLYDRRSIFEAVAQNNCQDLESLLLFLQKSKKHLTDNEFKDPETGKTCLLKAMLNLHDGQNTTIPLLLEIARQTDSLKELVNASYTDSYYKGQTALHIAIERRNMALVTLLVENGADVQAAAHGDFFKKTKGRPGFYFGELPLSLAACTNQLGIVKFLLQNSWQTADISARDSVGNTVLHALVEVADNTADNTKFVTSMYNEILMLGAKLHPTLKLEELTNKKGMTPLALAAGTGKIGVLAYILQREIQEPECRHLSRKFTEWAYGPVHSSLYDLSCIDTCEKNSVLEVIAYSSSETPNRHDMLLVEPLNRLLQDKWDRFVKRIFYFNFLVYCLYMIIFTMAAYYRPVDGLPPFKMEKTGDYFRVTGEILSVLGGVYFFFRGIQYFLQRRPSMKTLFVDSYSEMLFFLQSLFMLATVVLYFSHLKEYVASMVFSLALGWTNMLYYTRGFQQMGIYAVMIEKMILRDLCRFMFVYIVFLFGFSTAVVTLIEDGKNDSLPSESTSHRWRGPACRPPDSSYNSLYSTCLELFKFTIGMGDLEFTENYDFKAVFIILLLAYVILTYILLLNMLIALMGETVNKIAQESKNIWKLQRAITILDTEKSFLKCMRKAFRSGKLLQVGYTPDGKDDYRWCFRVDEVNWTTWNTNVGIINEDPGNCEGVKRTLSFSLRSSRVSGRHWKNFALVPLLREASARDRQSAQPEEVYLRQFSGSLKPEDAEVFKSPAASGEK

Usually IC50 stands for the concentration that inhibits the measured activity by half. `Cn1ncc2c(NC(=O)N[C@@H]3CC[C@H](c4ccccc4)C3)cccc21` [Example 4, 1-(1-methyl-1H-indazol-4-yl)-3-[(1R,3S)-3-phenylcyclopentyl]urea]: the concentration for half-maximal inhibition (IC50) in assay [1] (setting [4]) amounted to 18 nM; in assay [1] (Table 2), 22 nM. Further, in the assay with Sprague-Dawley rats [2], the “% Increase in tail withdrawal latency” value is “−”. In addition, the “% effect” value in the assay on Sprague-Dawley rats [3] (10 mg/kg p.o.) worked out at 50%.

Take `Cc1cc2c(NC(=O)N[C@@H]3CC[C@H](c4ccccc4)C3)c(F)ccc2cn1` [Example 6, 1-(6-fluoro-3-methylisoquinolin-5-yl)-3-[(1R,3S)-3-phenylcyclopentyl]urea]: the IC50 in assay [1] (setting [4]) and in assay [1] (Table 2) was 4 nM in each case. Moreover, in the assay on Sprague-Dawley rats [2], the “% Increase in tail withdrawal latency” value is “−”.

Turning to `O=C(Nc1cccc2[nH]ncc12)N[C@H]1CC[C@H](c2ccccc2)C1` [Example 14, 1-(1H-indazol-4-yl)-3-[(1S,3S)-3-phenylcyclopentyl]urea], the 50% inhibitory concentration (IC50) in assay [1] (setting [4]) and in assay [1] (Table 2) was 30 nM each time. Besides, in the assay on Sprague-Dawley rats [2], the “% Increase in tail withdrawal latency” value is “−”.

On to `O=C(Nc1cccc2[nH]ncc12)N[C@@H]1CC[C@@H](c2ccccc2)C1` [Example 21, 1-(1H-indazol-4-yl)-3-[(1R,3R)-3-phenylcyclopentyl]urea], for which the 50% inhibitory concentration (IC50) in assay [1] (setting [4]) and in assay [1] (Table 2) was 20 nM in each case. The change in vivo at 100 µmol/kg with Sprague-Dawley rats [2] (1 h, read-out: % Increase in tail withdrawal latency) was in the range of 10 to 25%. In addition, the “% effect” value in the assay with Sprague-Dawley rats [3] (10 mg/kg p.o.) is on record as 37%.

For `O=C(Nc1cccc2[nH]ncc12)N[C@H]1CC[C@@H](c2ccccc2)C1` [Example 28, 1-(1H-indazol-4-yl)-3-[(1S,3R)-3-phenylcyclopentyl]urea], the half-inhibitory concentration (IC50) in assay [1] (setting [4]) and in assay [1] (Table 2) was 64 nM in each case. Besides, the “% Increase in tail withdrawal latency” value with Sprague-Dawley rats [2] is listed as “−”. Further, the “% effect” value with Sprague-Dawley rats [3] (100 μmol/kg p.o.) is reported as 78%.
